The source of these data is ChEMBL document CHEMBL1201862, “PubChem BioAssay data set” (2004).

Active and inactive are the calls of the source. Some results are limits rather than exact numbers.

Assay [1] is described as follows: luciferase reporter signal suppression in cells – H4 neuroglioma cells, luminescence, dose response (AID 1990). In kind it is functional, cell-based.
Assay [2] concerns HEK293. As to the kind of experiment: inhibition of NOD1-driven NF-kB reporter – cell-based, luminescence, uHTS, primary screen (AID 1578). It counts as functional. As to conditions: Homo sapiens.
Assay [3] concerns HEK293. As to the kind of experiment: cells. As to conditions: Homo sapiens. In kind it is functional, cell-based.
A short description of assay [4]: Luminescence Cell-Based Dose Response HTS to Identify Inhibitors of 5'UTR Stem-Loop Driven Prion Protein mRNA Translation in H4 Neuroglioblastoma Cells. [Related pubchem assays: 1827 (Project Summary), 1813 (Primary HTS)]. It counts as functional.
The target of assay [5] is T1, Heat shock factor protein 1 (Mus musculus, UniProt P38532).
T1 sequence (P38532 whole entry): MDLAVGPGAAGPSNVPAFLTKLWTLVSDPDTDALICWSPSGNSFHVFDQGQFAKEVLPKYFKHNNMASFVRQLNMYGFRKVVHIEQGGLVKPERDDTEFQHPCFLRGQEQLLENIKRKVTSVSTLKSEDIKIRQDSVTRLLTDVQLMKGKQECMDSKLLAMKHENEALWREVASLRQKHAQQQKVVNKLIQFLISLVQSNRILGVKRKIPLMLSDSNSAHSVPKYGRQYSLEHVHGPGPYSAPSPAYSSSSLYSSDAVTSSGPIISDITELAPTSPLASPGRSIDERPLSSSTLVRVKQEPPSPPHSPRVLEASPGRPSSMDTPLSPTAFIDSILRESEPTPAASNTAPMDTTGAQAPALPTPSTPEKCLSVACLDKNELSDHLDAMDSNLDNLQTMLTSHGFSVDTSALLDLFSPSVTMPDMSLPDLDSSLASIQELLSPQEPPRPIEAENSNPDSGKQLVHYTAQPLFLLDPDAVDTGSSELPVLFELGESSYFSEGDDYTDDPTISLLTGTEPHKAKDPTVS
Put plainly: decrease of HSF1-responsive luciferase luminescence – cell-based, NIH3T3, dose retest, confirmation (AID 2382).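 Also: NIH3T3 fibroblasts with HSF1-driven luciferase reporter stressed by proteasome inhibitor MG132; luminescence from HSF1-driven luciferase expression after 8 hours of MG132 stress.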 It counts as functional.

Assay [6] in a line: alpha-synuclein stem-loop luciferase translation blockers – H4 neuroglioma cells, luminescence, confirmation (AID 1988). It counts as functional, cell-based.
The subject of assay [7] is HEK293. As to the kind of experiment: cells. In kind it is functional, cell-based. As to conditions: Homo sapiens. This is another data set of the same source.
Assay [8] concerns the target Nucleotide-binding oligomerization domain-containing protein 2 (Homo sapiens, UniProt Q9HC29). As to the kind of experiment: inhibition of NOD2-driven NF-kB reporter – cell-based, luminescence, uHTS, HEK293 (AID 1566). In kind it is functional.
Assay [9] relates to HEK293. Put plainly: NOD2 signaling inhibitors in MDP-stimulated cells, cell-based, uHTS, luminescence (AID 2001). It counts as functional. As to conditions: Homo sapiens.
The test system of assay [10] is HEK293. Put plainly: cells. It counts as functional, cell-based. The settings on record: Homo sapiens. This is another data set of the same source.
Assay [11] is described as follows: HEK-293T cell viability reduction – luminescence, B-cell screen hits, cytotoxicity control for BCR NF-kB inhibitor project, dose response (AID 489021).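 Also: HEK-293T cells carrying an NF-kB luciferase reporter; cells exposed to compound for about 14 hours before viability readout.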 In kind it is functional, cell-based.
Assay [12] addresses T2, Short transient receptor potential channel 4 (Mus musculus, UniProt Q9QUQ5).
T2 sequence (Q9QUQ5 whole entry): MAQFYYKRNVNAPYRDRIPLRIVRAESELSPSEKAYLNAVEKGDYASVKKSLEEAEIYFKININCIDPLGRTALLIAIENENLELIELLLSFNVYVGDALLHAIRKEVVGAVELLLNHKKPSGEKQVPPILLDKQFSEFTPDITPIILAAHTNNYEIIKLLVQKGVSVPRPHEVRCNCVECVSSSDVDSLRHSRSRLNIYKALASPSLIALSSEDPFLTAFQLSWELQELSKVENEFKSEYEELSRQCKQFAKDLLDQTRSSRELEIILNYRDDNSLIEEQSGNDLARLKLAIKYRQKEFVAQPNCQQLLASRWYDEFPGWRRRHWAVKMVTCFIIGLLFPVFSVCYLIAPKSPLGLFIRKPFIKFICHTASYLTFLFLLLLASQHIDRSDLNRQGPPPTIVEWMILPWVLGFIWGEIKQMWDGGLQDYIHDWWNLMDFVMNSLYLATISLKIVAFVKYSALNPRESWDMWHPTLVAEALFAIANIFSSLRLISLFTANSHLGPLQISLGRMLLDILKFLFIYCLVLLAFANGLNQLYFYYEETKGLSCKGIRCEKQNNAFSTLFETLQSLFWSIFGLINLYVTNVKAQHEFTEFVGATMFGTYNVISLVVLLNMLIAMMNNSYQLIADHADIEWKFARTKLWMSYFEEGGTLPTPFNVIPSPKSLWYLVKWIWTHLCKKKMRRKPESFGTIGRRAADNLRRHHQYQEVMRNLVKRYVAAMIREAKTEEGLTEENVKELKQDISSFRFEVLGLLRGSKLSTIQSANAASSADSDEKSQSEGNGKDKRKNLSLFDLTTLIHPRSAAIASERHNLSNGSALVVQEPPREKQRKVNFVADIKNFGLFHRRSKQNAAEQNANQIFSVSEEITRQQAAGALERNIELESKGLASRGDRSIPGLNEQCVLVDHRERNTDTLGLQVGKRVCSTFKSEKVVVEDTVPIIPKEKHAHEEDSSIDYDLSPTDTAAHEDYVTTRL
Put plainly: calcium entry via TRPC4 opening agents – cell-based, HEK293 TRPC4/mu-opioid, Fluo-4 calcium, dose response (AID 434937). It counts as functional.

The target in assay [13] is DNA dC->dU-editing enzyme APOBEC-3A (Homo sapiens, UniProt P31941). As to the kind of experiment: Dose Response confirmation of small molecule APOBEC3A DNA Deaminase Inhibitors via a fluorescence-based single-stranded DNA deaminase assay. [Related pubchem assays (depositor defined):AID493011, AID493024]. It counts as functional.
Sequence of DNA dC->dU-editing enzyme APOBEC-3A (P31941 whole entry): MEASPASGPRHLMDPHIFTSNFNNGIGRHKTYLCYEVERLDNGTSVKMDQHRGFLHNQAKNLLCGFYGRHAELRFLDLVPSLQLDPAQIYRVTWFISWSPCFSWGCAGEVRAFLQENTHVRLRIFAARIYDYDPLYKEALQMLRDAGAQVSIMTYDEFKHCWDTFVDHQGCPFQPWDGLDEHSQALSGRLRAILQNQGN
Assay [14] has as its target DNA dC->dU-editing enzyme APOBEC-3G (Homo sapiens, UniProt Q9HC16). In kind it is functional.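 Also: Dose-response counterscreen measuring inhibition of APOBEC3G DNA deaminase activity, run while confirming APOBEC3A inhibitors.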
A short description of assay [15]: HPDE-C7 pancreatic duct cell viability loss – fluorescence, HTS (AID 430). In kind it is functional, cell-based. As to conditions: Homo sapiens.
Assay [16] is described as follows: viability loss of HPDE-C7K cells – cell-based, fluorescence, HTS, primary screen (AID 431). In kind it is functional. The settings on record: Homo sapiens.
A short description of assay [17]: Luminescence Cell-Based Dose Retest to Confirm Inhibitors of Cancer Stem Cells. [Related pubchem assays (depositor defined):AID2717, AID2721]. In kind it is functional. The settings on record: Homo sapiens.
Assay [18] has as its system INS1. Put plainly: INS-1E survival protection against cytokine death – cell-based, luminescence, retest, dose response (AID 449756).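 Also: cell death triggered by IL-1 beta plus TNF-alpha plus IFN-gamma mixture; protective hits raise ATP signal compared with cytokine alone wells.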 The settings on record: Rattus norvegicus. In kind it is functional.
For assay [19], the target named is T3, Estrogen receptor (Homo sapiens, UniProt P03372).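 Also: potency for inhibiting coactivator peptide recruitment to the receptor.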
T3 sequence (P03372 whole entry): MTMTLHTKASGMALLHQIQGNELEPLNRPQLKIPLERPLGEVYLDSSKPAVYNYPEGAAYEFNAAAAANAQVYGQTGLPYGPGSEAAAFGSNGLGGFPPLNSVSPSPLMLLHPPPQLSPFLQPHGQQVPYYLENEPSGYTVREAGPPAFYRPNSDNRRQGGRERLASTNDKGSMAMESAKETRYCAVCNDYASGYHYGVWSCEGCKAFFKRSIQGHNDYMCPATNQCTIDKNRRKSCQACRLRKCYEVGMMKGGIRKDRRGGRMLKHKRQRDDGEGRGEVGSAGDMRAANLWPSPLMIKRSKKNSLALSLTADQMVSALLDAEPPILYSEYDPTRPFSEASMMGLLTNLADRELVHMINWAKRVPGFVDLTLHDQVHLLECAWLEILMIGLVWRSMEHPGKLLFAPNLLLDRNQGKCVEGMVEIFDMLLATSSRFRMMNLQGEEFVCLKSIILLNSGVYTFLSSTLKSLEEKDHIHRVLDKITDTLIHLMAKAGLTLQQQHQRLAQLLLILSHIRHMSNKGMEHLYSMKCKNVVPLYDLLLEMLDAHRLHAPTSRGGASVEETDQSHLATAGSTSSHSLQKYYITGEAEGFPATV

Assay [20] addresses SUMO-activating enzyme (Homo sapiens, UniProt Q9UBT2). Put plainly: blockers of UBC9-mediated SUMO conjugation – biochemical, AlphaScreen, SUMOylation inhibitor project, confirmation (AID 2018). In kind it is functional.
The target of assay [21] is T4, Apoptotic protease-activating factor 1 (Homo sapiens, UniProt O14727).
T4 sequence (O14727 whole entry): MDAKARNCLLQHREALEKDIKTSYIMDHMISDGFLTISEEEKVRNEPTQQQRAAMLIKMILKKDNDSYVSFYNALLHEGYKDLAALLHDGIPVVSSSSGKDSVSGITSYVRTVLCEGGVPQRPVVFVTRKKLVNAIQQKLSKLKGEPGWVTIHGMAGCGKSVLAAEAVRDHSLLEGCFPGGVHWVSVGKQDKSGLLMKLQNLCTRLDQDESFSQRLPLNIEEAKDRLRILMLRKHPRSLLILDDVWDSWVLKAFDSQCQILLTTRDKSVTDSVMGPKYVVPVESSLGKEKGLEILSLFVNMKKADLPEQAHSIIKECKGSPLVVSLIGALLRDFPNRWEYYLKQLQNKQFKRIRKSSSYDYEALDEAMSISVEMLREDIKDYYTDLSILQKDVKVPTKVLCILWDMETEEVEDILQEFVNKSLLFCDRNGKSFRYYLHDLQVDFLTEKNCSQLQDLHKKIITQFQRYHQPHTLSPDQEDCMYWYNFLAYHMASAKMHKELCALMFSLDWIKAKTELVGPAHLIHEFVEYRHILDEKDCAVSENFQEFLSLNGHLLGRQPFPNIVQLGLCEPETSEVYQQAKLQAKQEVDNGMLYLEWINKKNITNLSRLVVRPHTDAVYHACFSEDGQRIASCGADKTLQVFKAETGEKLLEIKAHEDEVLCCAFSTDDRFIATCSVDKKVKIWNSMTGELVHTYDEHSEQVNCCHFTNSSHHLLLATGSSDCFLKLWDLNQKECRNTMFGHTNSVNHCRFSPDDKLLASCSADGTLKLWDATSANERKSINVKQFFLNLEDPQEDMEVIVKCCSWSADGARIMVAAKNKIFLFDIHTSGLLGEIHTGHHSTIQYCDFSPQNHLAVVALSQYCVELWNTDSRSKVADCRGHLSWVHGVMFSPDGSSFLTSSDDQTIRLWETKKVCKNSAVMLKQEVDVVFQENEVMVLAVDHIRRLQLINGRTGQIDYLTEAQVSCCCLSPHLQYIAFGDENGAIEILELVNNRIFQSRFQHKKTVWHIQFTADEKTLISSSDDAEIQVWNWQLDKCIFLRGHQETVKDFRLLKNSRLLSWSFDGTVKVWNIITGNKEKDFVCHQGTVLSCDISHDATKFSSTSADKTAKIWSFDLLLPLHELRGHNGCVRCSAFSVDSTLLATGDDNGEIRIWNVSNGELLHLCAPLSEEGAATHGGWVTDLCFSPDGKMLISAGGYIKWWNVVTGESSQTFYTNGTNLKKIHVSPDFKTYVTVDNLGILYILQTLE
It counts as functional.

Assay [22] relates to Vero. Put plainly: cells. It counts as functional. As to conditions: Chlorocebus sabaeus.

Sequence of Nucleotide-binding oligomerization domain-containing protein 2 (Q9HC29 whole entry, the tested form may be a part): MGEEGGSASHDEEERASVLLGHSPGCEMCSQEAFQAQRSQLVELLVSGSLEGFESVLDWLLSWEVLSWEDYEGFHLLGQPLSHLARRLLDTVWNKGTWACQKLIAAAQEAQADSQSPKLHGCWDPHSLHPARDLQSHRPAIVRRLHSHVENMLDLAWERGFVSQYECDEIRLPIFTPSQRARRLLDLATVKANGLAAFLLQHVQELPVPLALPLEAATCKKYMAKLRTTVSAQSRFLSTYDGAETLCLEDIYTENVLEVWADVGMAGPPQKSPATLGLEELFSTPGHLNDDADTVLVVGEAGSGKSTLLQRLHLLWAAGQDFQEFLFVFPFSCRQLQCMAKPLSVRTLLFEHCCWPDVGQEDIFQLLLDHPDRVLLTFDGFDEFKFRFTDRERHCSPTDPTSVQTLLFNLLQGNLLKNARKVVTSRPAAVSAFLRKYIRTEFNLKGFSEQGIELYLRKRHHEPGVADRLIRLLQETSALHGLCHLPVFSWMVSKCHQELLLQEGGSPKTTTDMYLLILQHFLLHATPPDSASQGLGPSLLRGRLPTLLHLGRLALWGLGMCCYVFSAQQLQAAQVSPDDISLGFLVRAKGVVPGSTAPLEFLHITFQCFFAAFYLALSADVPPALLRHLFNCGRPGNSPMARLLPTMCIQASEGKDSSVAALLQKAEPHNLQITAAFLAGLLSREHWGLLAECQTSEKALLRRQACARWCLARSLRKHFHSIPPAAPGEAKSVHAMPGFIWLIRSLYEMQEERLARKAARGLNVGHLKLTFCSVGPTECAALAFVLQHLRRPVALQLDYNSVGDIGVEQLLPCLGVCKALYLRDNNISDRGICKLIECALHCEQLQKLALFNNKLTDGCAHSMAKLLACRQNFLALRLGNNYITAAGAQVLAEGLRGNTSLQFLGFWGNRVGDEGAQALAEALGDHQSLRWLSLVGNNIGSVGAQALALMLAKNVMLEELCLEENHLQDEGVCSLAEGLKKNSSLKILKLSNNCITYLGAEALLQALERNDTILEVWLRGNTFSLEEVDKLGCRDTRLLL
Sequence of DNA dC->dU-editing enzyme APOBEC-3G (Q9HC16 whole entry): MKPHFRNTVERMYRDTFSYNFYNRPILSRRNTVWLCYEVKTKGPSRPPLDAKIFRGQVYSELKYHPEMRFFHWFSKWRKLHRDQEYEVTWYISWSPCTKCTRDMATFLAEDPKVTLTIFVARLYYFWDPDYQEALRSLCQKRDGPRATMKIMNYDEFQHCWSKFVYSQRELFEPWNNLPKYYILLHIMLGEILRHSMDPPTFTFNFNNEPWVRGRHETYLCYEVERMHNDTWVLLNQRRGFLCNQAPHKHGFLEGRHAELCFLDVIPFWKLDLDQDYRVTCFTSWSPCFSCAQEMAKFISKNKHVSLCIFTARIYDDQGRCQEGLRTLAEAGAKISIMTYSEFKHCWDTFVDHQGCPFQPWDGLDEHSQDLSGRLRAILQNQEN
Sequence of SUMO-activating enzyme (Q9UBE0 whole entry): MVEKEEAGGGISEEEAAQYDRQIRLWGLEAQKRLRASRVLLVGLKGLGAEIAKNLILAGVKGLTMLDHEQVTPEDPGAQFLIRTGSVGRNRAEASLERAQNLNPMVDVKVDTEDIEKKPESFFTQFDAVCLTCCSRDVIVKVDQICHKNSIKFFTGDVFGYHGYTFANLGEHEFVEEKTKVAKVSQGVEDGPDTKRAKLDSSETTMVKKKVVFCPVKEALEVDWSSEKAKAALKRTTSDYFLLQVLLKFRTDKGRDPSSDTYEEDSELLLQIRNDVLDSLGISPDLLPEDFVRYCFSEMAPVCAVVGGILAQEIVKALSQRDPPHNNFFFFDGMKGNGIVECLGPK
Sequence of SUMO-activating enzyme (Q9UBT2 whole entry): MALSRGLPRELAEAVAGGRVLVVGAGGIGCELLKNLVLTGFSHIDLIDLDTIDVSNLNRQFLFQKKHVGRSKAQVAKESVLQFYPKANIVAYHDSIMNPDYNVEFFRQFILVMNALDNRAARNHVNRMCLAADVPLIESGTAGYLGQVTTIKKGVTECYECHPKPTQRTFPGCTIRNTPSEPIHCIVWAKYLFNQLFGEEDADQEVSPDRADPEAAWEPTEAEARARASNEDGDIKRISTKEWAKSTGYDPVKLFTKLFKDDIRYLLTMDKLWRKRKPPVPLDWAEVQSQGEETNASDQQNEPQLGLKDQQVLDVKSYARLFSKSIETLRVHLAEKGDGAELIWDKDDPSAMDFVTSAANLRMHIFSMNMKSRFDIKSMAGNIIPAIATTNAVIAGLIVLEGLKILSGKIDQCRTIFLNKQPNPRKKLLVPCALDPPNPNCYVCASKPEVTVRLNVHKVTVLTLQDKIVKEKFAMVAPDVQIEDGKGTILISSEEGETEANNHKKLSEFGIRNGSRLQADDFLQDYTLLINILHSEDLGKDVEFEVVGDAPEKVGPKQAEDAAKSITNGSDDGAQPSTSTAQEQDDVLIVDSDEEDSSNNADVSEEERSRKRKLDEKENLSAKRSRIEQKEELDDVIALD

On to `O=C(O)CCSc1ncnc2sc(-c3ccccc3)cc12`, for which the EC50 is 4.36 µM (active) in assay [1]; 7.39 µM (active) in assay [2]; 9.35 µM (active) in assay [4]; 0.643 µM (active) in assay [5]; 4.68 µM (active) in [6]; 4.19 µM (active) in assay [8]. The IC50 in assay [3] is 1.54 µM (active); in assay [7], > 20 µM (inactive); in assay [9], 3.59 µM (active); in assay [10], > 20 µM (inactive); in assay [11], > 80 µM (inactive).
For the molecule `COc1ccc2c(c1O)C13CCN(C)C(C2)C1CCC(=O)C3` (stereo not drawn), the EC50 in assay [12] was 0.168 µM (active).
Regarding `CC(=O)Nc1nnc(SCc2ccc(C(=O)Nc3ccccc3F)cc2)s1`, the IC50 in assay [13] was 5.85 µM (active); in [14] it was 6.06 µM (active).
As to `O=C(Nc1ccc2nn(-c3ccccc3)nc2c1)c1ccc2c(c1)OCCO2`, the EC50 in [2] was > 20 µM (inactive); in assay [15], > 20 µM (not active); in assay [8], > 20 µM (inactive); in assay [16] it was > 20 µM (not active). The IC50 in [3] was 5.31 µM (active); in assay [7], > 20 µM (inactive); in assay [9], 8.39 µM (active); in assay [10], > 20 µM (inactive).
As to `COc1cc(NC(=O)c2cc3ccccc3cc2O)c(OC)cc1Cl`, the figures for the EC50 in assay [2] and in assay [8] were 4.15 µM (active) and 5.66 µM (active), respectively. Besides, the IC50 in assay [3] was > 20 µM (inactive); in [7], 14 µM (active); in assay [9], 4.06 µM (inactive); in [10] it was > 20 µM (inactive). The AC50 in assay [17] was 0.612 µM (active); in [18], 4.03 µM (active).
Regarding `Cc1cccc(C(=O)NC(=S)NNC(=O)c2cccs2)c1`, the EC50 in [12] was 2.99 µM (active).
Regarding `CC1(C)Oc2ccc3ccc(=O)oc3c2C(/C=N/CCO)=C1O`, the IC50 in assay [13] was 2.47 µM (active); in [14], 6.83 µM (active).
Taken in the same sequence, the figures for `C[N+]1(CCCCCCC(=O)C=NO)CCCCCC1` were 4.03 µM (active) and 3.9 µM (active).
With `Cn1c(SCC(=O)Nc2ccc3c(c2)oc2ccccc23)nnc1-c1ccccc1`, the IC50 in assay [19] was > 50 µM (not active); in assay [13] it was 5.4 µM (active); in [14], 6.7 µM (active).
As to `CCOc1cccc2cc(-c3nnc(NCc4ccco4)s3)c(=O)oc12`, the IC50 was 45.7 µM (active) in [20] and 26.8 µM (active) in assay [19].
Consider `Cc1ccc(-c2nn3c(C)nnc3c3ccccc23)cc1S(=O)(=O)NCc1ccco1`, for which the IC50 in assay [11] is > 80 µM (inactive); in assay [21], 15.2 µM (active). Moreover, the CC50 in [22] was 3.28 µM (active).
